With O=C(CC1(C=NO)OCCO1)OCc1ccccc1 the melting point was 52 °C. O=C(O)C(Cc1cccnc1)C(=O)O showed a melting point of 128 to 129 °C. In the case of COc1ccc(CCNC(N)=O)cc1OC1CCCC1, the melting point is reported as 136 to 137 °C. For COc1ccccc1Cc1nc2n(c1Cc1ccccc1OC)CCS2, the melting point was 212 to 213 °C. Work on CC(=O)Nc1ccccc1S(=O)(=O)NCCCCN1CCN(c2ncccn2)CC1 yielded a melting point of 99 °C. With O=C(C=Cc1ccccc1)Oc1ccc2ccccc2c1 the melting point was 99 to 101 °C. For N#CCOc1ccc2cc(-c3cnc(-c4cn(Cc5ccccc5)c5ccccc45)o3)ccc2c1, the melting point was 205 to 208 °C. CCCCCCCc1cnc([C@H]2CC[C@H](CCCCC)CC2)nc1 gave a melting point of 22 °C. In the case of O=c1n(O)ccn1Cc1ccc(OCc2ccccc2)cc1, the melting point is reported as greater than 175 °C. For CCCCSc1c2sc3ccccc3nc-2cc(C)c1=O, the melting point was 97 °C. With Clc1cc(Cl)c2c(c1)CCC(N1CCCC1)=C2 the melting point was 84.5 to 85.5 °C. With c1ccc(C2=c3cc4c(cc3Oc3ccccc32)=C(c2ccccc2)c2ccccc2O4)cc1 the melting point was 419 °C. For O=C(CC1COC1)N[C@H]1CC[C@H](CCN2CCN(c3nccc4c3CCO4)CC2)CC1, the melting point was 195 °C. Compound CC(C)CCCC(C)C1CCC2C3CC=C4CC(OCC(=O)O)CCC4(C)C3CCC12C (stereo not given) has a melting point of 160 °C. C=CCN1C2CCC1C1CCC2N1C(c1ccc(C(=O)N2CCCC2)cc1)c1cccc(OC)c1 (stereo not given) gave a melting point of 46 to 48 °C. For CC(CO)N1CC(COc2cccc(Cl)c2)OC1=O (stereo not given), the melting point was 76 to 78 °C. Cc1cc(SC(C)C)c(NC(=O)CCCCCCSc2nc3ccccc3o2)c(SC(C)C)n1 gave a melting point of 76 to 78 °C. For N#Cc1ccc2c(c1)nc(/C=C/c1ccccc1)n2-c1ccccn1, the melting point was 172 to 173 °C. With CCC(O)(c1ccc(OCc2cccc(C)n2)cc1)c1ccccc1OC (stereo not given) the melting point was 110 to 111 °C. Compound COc1ccc(C=CC(=O)N2CCN(c3nc(N)c4cc(OC)c(OC)cc4n3)CC2)cc1OC has a melting point of 140 °C. With CCCCc1nn(-c2cc(N)ccc2Cl)c(=O)n1Cc1ccc(-c2ccccc2S(=O)(=O)NC(C)(C)C)cc1F the melting point was 167 to 170 °C. Compound CC(=O)C1C(C)CC2C3CCC4=CCC=CC4(C)C3CCC21C (stereo not given) has a melting point of 175 °C. Work on O=C(Nc1c(C(O)(C(F)(F)F)C(F)(F)F)ccc2ccccc12)c1ccc(Br)cc1 yielded a melting point of 155 to 156 °C. With C#CCOc1ccc(OC)cc1-c1nc2cnccc2[nH]1 the melting point was 210 °C. With COc1ccc(S(=O)(=O)N2CCc3cccc(-c4ccc(F)cc4)c32)cc1 the melting point was 178 to 179 °C. Work on CC(C)CCC(C)Oc1c(-c2ccc(S(C)(=O)=O)cc2)cnn(-c2ccc(F)cc2)c1=O (stereo not given) yielded a melting point of 102 to 103 °C. CC1CN(c2n[nH]c(-c3ccc(Cl)cc3)c2-c2ccncc2)CC(C)N1 (stereo not given) showed a melting point of 236 to 238 °C. Compound CCOC(=O)C1=C(C(F)(F)F)Nc2n[nH]cc2C1c1ccccc1OC (stereo not given) has a melting point of 144 to 146 °C. COc1cccc2cc(C(=O)O)oc(=O)c12 showed a melting point of 251 to 253 °C. CC(C)C[C@H](NC(=O)[C@H](Cc1c[nH]c2ccccc12)NC(=O)OC(C)(C)C)C(=O)O showed a melting point of 109 to 111 °C. Cc1nonc1-n1cc(C(=O)O)c(=O)c2cc(F)c(F)cc21 gave a melting point of 238 to 241 °C. O=C(c1cncnc1)c1ccc(Cl)cc1Cl showed a melting point of 75 to 78 °C. Compound OCc1cn(-c2cccc(Cl)c2)cn1 has a melting point of 78 to 79 °C. With CN(C(=O)CN(C(=O)CNC(=O)OC(C)(C)C)c1ccccc1OCc1ccccc1)c1ccccc1 the melting point was 168 to 170 °C. With O=C(OCc1ccccc1)c1ccc(OC(=O)c2ccc(C(=O)Oc3ccc(C(=O)OCc4ccccc4)cc3)cc2)cc1 the melting point was 186 to 187 °C. Cc1c(Cl)cc(C(=O)C=CC(=O)O)cc1Cl showed a melting point of 206 to 216 °C. In the case of Cc1cn2c(n1)-c1ccccc1Nc1ccccc1-2, the melting point is reported as 232 to 236 °C. Work on CCN(CC)c1nc(C(F)(F)C(F)(F)F)nn1-c1c(Cl)cc(Cl)cc1Cl yielded a melting point of 66 to 70 °C. Work on CCCC(=O)NC(C)c1nnc(C)[nH]c1=O (stereo not given) yielded a melting point of 235 to 237 °C. Work on CCOC(=O)c1[nH]nnc1Nc1ccc(Cl)cc1 yielded a melting point of 161 °C. Compound CN1C2CCC1CC(=NO)C2 has a melting point of 140 to 142 °C. In the case of CCn1cc(C)c(NS(=O)(=O)c2ccc(NC(C)=O)cc2)nc1=O, the melting point is reported as 235 to 239 °C. With CC(C)c1ccccc1Sc1c(O)cc(-c2ccc(OCC3CCCCC3)cc2)oc1=O the melting point was 187 to 188 °C. Work on CCCCCc1cc(O)c2c(c1)OC(C)(C)C1=C2CC(C)(C)S1 yielded a melting point of 109 to 110 °C. CCCCOc1ncc(C(C)=O)cc1-c1nc2c(CC)n(C3CN(CC)C3)nc2c(=O)[nH]1 gave a melting point of 143 to 144 °C. With CSc1cc(-c2nc(=O)c3ccccc3s2)ccn1 the melting point was 173 to 174 °C. In the case of Nc1nc(N)c2ncn(CC/C=C/P(=O)(O)O)c2n1, the melting point is reported as greater than 325 °C. Work on O=C(CCl)Nc1cc(Oc2ncccc2C(F)(F)F)c(Cl)cc1F yielded a melting point of 146 to 149 °C. For COC(=O)Nc1nc2cc(SCC3CCCCC3)ccc2[nH]1, the melting point was 200 to 204 °C. CCOC(=O)Cc1cccc(C(=O)c2ccc(Br)cc2)c1N gave a melting point of 107 to 109 °C. O=C(NC(=O)c1cccs1)NC1CCN(Cc2c[nH]c3ccccc23)CC1 showed a melting point of 231 to 232 °C. Compound CC(=O)Nc1ccc(OC(F)(F)C(F)F)cc1[N+](=O)[O-] has a melting point of 80 to 81 °C. Work on C=C(C)C(=O)[C@@H]1CCCC[C@H]1C(=O)OC(c1ccccc1)c1ccccc1 (relative stereo) yielded a melting point of 90 to 95 °C. With [N-]=[N+]=NC(C(=O)O)C1c2ccccc2C=Cc2ccccc21 (stereo not given) the melting point was 119 to 120 °C. Work on O=C1c2cccc(NC(=S)Nc3cccc(Br)n3)c2C2CCCCN12 (stereo not given) yielded a melting point of 195 °C. With FC(F)(F)c1cccc2c(-c3ccccc3)c(Sc3ccccc3)cnc12 the melting point was 153 to 155 °C. C[C@H]1NC(=O)[C@H]1N(NC(=O)OC(C)(C)C)C(=O)OC(C)(C)C gave a melting point of 147 to 149 °C. Compound O=C(O)C1CSC(c2ccncc2)N1 (stereo not given) has a melting point of 171 to 173 °C. For N#Cc1ccc(N(Cc2ccc3c(c2)CNS(=O)(=O)O3)n2ccnc2)cc1, the melting point was 190 °C. With O=[N+]([O-])c1ccc(-n2nc(-c3ccccc3O)nc2-c2ccccc2O)cc1 the melting point was 180 to 183 °C. With CC(=O)NCc1ccc(C#Cc2ccc3c(c2)C(C)(C)CCC3(C)C)cc1 the melting point was 220 to 223 °C. Nc1cc(F)c(-n2ccc(=O)cc2)cc1N showed a melting point of 227 to 230 °C. In the case of COc1ccc(-c2cc(Oc3c(C)cc(C)cc3C)nc(C)n2)cc1OC, the melting point is reported as 122 to 125 °C. For Cn1c(C(F)(F)F)cc(=O)n(-c2cc(OCC#CCOc3ccccc3)c(Cl)cc2F)c1=O, the melting point was 142 to 144 °C. CNS(=O)(=O)Cc1ccc2c(c1)c(CC#N)cn2Cc1ccccc1 gave a melting point of 133 to 135 °C. For Cc1c(C)c(O)c(CCC(C)(O)COc2ccc(CC3SC(=O)NC3=O)cc2)c(C)c1O (stereo not given), the melting point was 84 to 88 °C. CCOC(=O)C(Oc1ccc2ccccc2c1)C(=O)OCC showed a melting point of 57 to 58.5 °C. With C=C(C)COc1ccc(Br)cc1CN(CC)c1ccc(-c2cc(O)n(C)n2)nn1 the melting point was 151 to 152 °C. CCOC(=O)/C=C/c1ccc2cc(OCc3ccccc3)ccc2c1 gave a melting point of 110 to 112 °C. Compound CC1CN(C(P(=O)(O)O)P(=O)(O)O)CC(C)S1 (stereo not given) has a melting point of 219 to 220 °C. CCOC(=NC(=O)c1ccc(OC)cc1)N1Cc2ccccc2-c2ccccc2C1 showed a melting point of 71 to 78 °C. With NS(=O)(=O)c1ccc(N2CCN(CCCC3OCCc4ccccc43)CC2)cc1 (racemic) the melting point was 177 to 178 °C. With Cn1c(-c2ccccc2F)n[nH]c1=S the melting point was 137 to 139 °C. For Cc1cnc(Br)c(C#N)c1, the melting point was 109 to 111 °C. With COc1ccc(N)c(C2Cc3ccccc3N2)c1 (stereo not given) the melting point was 120 to 123 °C. Work on CCOC(=O)c1cc2cc(C)c(C(F)(F)F)cc2n1[C@H](C)CNC(=O)OC(C)(C)C yielded a melting point of 103 to 105 °C. COc1ccc2c(c1)C(N1C(=O)c3ccccc3C1=O)C(=O)N2c1ccc(F)cc1 (stereo not given) gave a melting point of 208 to 210 °C. Work on N#Cc1ccc(OC(Cc2ccc(OCCNC(=O)c3ccc(-c4ccccn4)cc3)cc2)C(=O)O)cc1 (stereo not given) yielded a melting point of 92 to 93 °C. CCc1nc2c(N)nc3ccccc3c2n1CCCCS(=O)(=O)c1ncccn1 showed a melting point of 172 to 175 °C. CCCCC[C@H]1CC[C@H](/C=C/COc2ccc(C(=O)O)cc2)CC1 showed a melting point of 214 to 215 °C. For CCC(C(=O)O)c1ccc(C(=O)c2ccc(Cl)cc2)n1C (stereo not given), the melting point was 108 to 112 °C. Work on N#Cc1ccc(NC(=O)NC(=O)c2ccccc2Cl)c(Cl)c1Cl yielded a melting point of 278 to 282 °C. With Cc1noc([C@@H]2CSCc3c(O)cc(O)c(C)c3C(=O)OC[C@@H](O)C(=O)N2)n1 the melting point was 265 to 267 °C. O=C(O)c1cc(OCCCCCCOc2ccc(-c3ccccc3)cc2)ccc1OCc1ccccc1 showed a melting point of 131 to 133 °C. With Cc1ccc(-c2nc3cc(N=C=S)ccc3o2)o1 the melting point was 110 to 121 °C. Fc1cccc(COc2ccc(Nc3ncnc4sc(C#Cc5ncccn5)cc34)cc2Cl)c1 showed a melting point of 225 °C. CNC(=O)c1ccccc1Nc1nc(Nc2ccc3c(c2)CCN(CC(F)(F)F)CC3)ncc1Cl gave a melting point of 177 to 190 °C. CN1Cc2ccccc2[C@H]2c3cccc4c3[C@H](CN4)C[C@@H]21 (relative stereo) showed a melting point of 184 to 185 °C. Compound CCCCOc1cc(/C=C(\OCC)C(=O)O)ccc1OCCc1ccc(NC(C)=O)cc1 has a melting point of 160 °C. O=C(c1ccccc1)c1ccc2cc[nH]c2n1 gave a melting point of 174 °C. CCC(CC)N1CSc2cnc(N)nc21 showed a melting point greater than 232 °C. Compound COc1ccc(CCNC(=O)Nc2ccccc2CCc2cc(C(C)(C)C)c(O)c(C(C)(C)C)c2)cc1 has a melting point of 148 to 149 °C. O=C(NCc1ccc(Cl)cc1)c1cn2c3c(cc(CN4CCOCC4)cc3c1=O)OC(CN1CCCC1)C2 (stereo not given) gave a melting point of 210 to 212 °C. CC(C)(CO)CNC(=O)c1nn(C2CCCCO2)cc1NC(=O)c1ccccn1 (stereo not given) showed a melting point of 189 to 190 °C. With NC(=NCC(F)(F)F)Nc1ccnc(CSCCNc2nc(N)n[nH]2)n1 the melting point was 199 to 201 °C. Compound CC(C)(C)[C@H](N)C(N)=O has a melting point of 104 to 105 °C. In the case of CCCCC[C@H]1CC[C@H](c2cnc(C#N)nc2)CC1, the melting point is reported as 83.5 °C. With CC(C)(C)OC(=O)c1ncn2c1[C@@H]1CCCN1C(=O)c1c(I)cccc1-2 the melting point was 241 to 242 °C. O=C(CNCc1ccccc1)Nc1cccc2[nH]ccc12 gave a melting point of 158 to 161 °C. In the case of COc1cc(=O)n(-c2cccc(C(F)(F)F)c2)nc1-c1ccnn1-c1ccccc1, the melting point is reported as 165 to 167 °C.

— a melting point compilation (Tetko et al.; mined from patent text by program, amines drawn as free bases though some values may be those of a salt)
